Laboratory results taken from ChEMBL document CHEMBL3862024, “2-Phenylbenzo[b]furans: Synthesis and promoting activity on estrogen biosynthesis” (Bioorg Med Chem Lett, 2016).
Blank lines part the entries; values can stand above or below the compound they belong to.

What was measured:
[1] = Induction of estrogen biosynthesis in aromatase overexpressing HEK293A cells assessed as increase in 17beta-estradiol levels at 50 uM preincubated for 24 hrs followed by testosterone addition measured after 24 hrs by magnetic particle-based ELISA relative to egonol gentiobioside; format: functional, Homo sapiens, HEK293-A
[2] = Induction of estrogen biosynthesis in aromatase overexpressing HEK293A cells assessed as increase in 17beta-estradiol levels preincubated for 24 hrs followed by testosterone addition measured after 24 hrs by magnetic particle-based ELISA; format: functional, cell-based; conditions: Homo sapiens, HEK293-A
[3] = Cytotoxicity against aromatase overexpressing HEK293A cells assessed as effect on cell proliferation at 10 to 50 uM; format: toxicity, cell-based; conditions: human, hek293-a

EC50 [2]: 15.5 µM
Structure (SMILES): c1ccc(-c2cc3ccccc3o2)cc1
fold change (FC) [1]: >0.6 | Activity [3]: Non-Toxic

Structure (SMILES): COc1cccc2cc(-c3ccccc3)oc12
Activity [3]: Non-Toxic

Structure (SMILES): COc1ccc(-c2cc3cccc(OC)c3o2)cc1OC
Activity [3]: Non-Toxic

Structure (SMILES): COc1ccc(-c2cc3ccccc3o2)cc1
Activity [3]: Non-Toxic

Structure (SMILES): COc1ccc(-c2cc3cc(Cl)ccc3o2)cc1
Activity [3]: Non-Toxic

EC50 [2]: 20.1 µM
Structure (SMILES): COc1cc(Cl)cc2cc(-c3ccc(F)cc3)oc12
fold change (FC) [1]: >0.6 | Activity [3]: Non-Toxic

Structure (SMILES): COc1cc(Cl)cc2cc(-c3ccc(Cl)cc3)oc12
Activity [3]: Non-Toxic

Structure (SMILES): COc1cccc2cc(-c3ccc([N+](=O)[O-])cc3)oc12
Activity [3]: Non-Toxic

EC50 [2]: 20.9 µM
Structure (SMILES): COc1ccc(-c2cc3cc(Br)cc(OC)c3o2)cc1
fold change (FC) [1]: >0.6 | Activity [3]: Non-Toxic

Structure (SMILES): COc1cc(Cl)cc2cc(-c3ccccc3)oc12
Activity [3]: Non-Toxic

EC50 [2]: 29.4 µM
Structure (SMILES): COc1cc(-c2cc3cc(Cl)ccc3o2)cc(OC)c1OC
fold change (FC) [1]: >0.6 | Activity [3]: Non-Toxic

Structure (SMILES): COc1ccc(-c2cc3cc(Br)cc(OC)c3o2)cc1OC
Activity [3]: Non-Toxic

Structure (SMILES): O=[N+]([O-])c1ccc(-c2cc3cc(Cl)cc(Cl)c3o2)cc1
Activity [3]: Non-Toxic

Structure (SMILES): COc1cc(CCCOC(C)=O)c(C=O)c2cc(-c3ccc4c(c3)OCO4)oc12
Activity [3]: Non-Toxic

Structure (SMILES): COc1cccc2cc(-c3ccc4c(c3)OCO4)oc12
fold change (FC) [1]: >0.6 | Activity [3]: Non-Toxic

EC50 [2]: 17.2 µM
Structure (SMILES): Clc1ccc2oc(-c3ccc(OCc4ccccc4)cc3)cc2c1
fold change (FC) [1]: >0.6 | Activity [3]: Non-Toxic

Structure (SMILES): COc1ccc(-c2cc3cc(Cl)ccc3o2)cc1OC
Activity [3]: Non-Toxic

Structure (SMILES): COc1ccccc1-c1cc2cc(Cl)ccc2o1
Activity [3]: Non-Toxic

Structure (SMILES): COc1cc(SC)cc2cc(-c3ccc(Cl)cc3)oc12
Activity [3]: Non-Toxic

Structure (SMILES): COc1cc(CCCO)c(Br)c2c(Br)c(-c3ccc4c(c3)OCO4)oc12
Activity [3]: Non-Toxic

EC50 [2]: 25.5 µM
Structure (SMILES): COc1ccc(-c2cc3cc(Br)cc(OC)c3o2)cc1O
fold change (FC) [1]: >0.6 | Activity [3]: Non-Toxic

Structure (SMILES): Clc1ccc(-c2cc3cc(Cl)ccc3o2)cc1
Activity [3]: Non-Toxic

Structure (SMILES): COc1cccc(-c2cc3cc(Br)cc(OC)c3o2)c1
fold change (FC) [1]: >0.6 | Activity [3]: Non-Toxic

EC50 [2]: 24.9 µM
Structure (SMILES): Fc1ccc(-c2cc3ccccc3o2)cc1
fold change (FC) [1]: >0.6 | Activity [3]: Non-Toxic

EC50 [2]: 14.7 µM
Structure (SMILES): COc1cccc2cc(-c3ccc(Cl)cc3)oc12
fold change (FC) [1]: >0.6 | Activity [3]: Non-Toxic

Structure (SMILES): COc1ccc(-c2cc3cccc(OC)c3o2)cc1
Activity [3]: Non-Toxic

Structure (SMILES): COc1ccc(-c2cc3ccccc3o2)cc1OC
Activity [3]: Non-Toxic

EC50 [2]: 19.4 µM
Structure (SMILES): COc1ccc(OC)c(-c2cc3cc(SC)cc(OC)c3o2)c1
fold change (FC) [1]: >0.6 | Activity [3]: Non-Toxic

Structure (SMILES): COc1ccc(-c2cc3cc(Cl)cc(Cl)c3o2)cc1OC
Activity [3]: Non-Toxic

EC50 [2]: 20.8 µM
Structure (SMILES): COc1cccc(-c2cc3ccccc3o2)c1
fold change (FC) [1]: >0.6 | Activity [3]: Non-Toxic

Structure (SMILES): Clc1cc(Cl)c2oc(-c3ccccc3)cc2c1
Activity [3]: Non-Toxic

EC50 [2]: 19.6 µM
Structure (SMILES): COc1cccc(-c2cc3cc(Cl)cc(Cl)c3o2)c1
fold change (FC) [1]: >0.6 | Activity [3]: Non-Toxic

EC50 [2]: 22.1 µM
Structure (SMILES): COc1cc(CCCO)c(Br)c2cc(-c3ccc4c(c3)OCO4)oc12
fold change (FC) [1]: >0.6 | Activity [3]: Non-Toxic

Structure (SMILES): O=[N+]([O-])c1ccc(-c2cc3cc(Cl)ccc3o2)cc1
Activity [3]: Non-Toxic

Structure (SMILES): COc1cc(-c2cc3cc(Br)cc(OC)c3o2)ccc1O
Activity [3]: Non-Toxic

Structure (SMILES): COc1ccccc1-c1cc2cc(Cl)cc(Cl)c2o1
Activity [3]: Non-Toxic

Structure (SMILES): COc1cccc(-c2cc3cccc(OC)c3o2)c1
Activity [3]: Non-Toxic

Structure (SMILES): COc1cc(SC)cc2cc(-c3ccc(F)cc3)oc12
Activity [3]: Non-Toxic

EC50 [2]: 30.9 µM
Structure (SMILES): COc1cc(Br)cc2cc(-c3ccc([N+](=O)[O-])cc3)oc12
fold change (FC) [1]: >0.6 | Activity [3]: Non-Toxic

Structure (SMILES): COc1cc(CCCOC(C)=O)cc2c(C=O)c(-c3ccc4c(c3)OCO4)oc12
Activity [3]: Non-Toxic

Structure (SMILES): COc1cc(Br)cc2cc(-c3ccc4c(c3)OCO4)oc12
Activity [3]: Non-Toxic

Structure (SMILES): COc1c(Br)c(CCCO)c(Br)c2c(Br)c(-c3ccc4c(c3)OCO4)oc12
Activity [3]: Non-Toxic

Structure (SMILES): COc1ccc(-c2cc3cc(Cl)cc(Cl)c3o2)cc1
Activity [3]: Non-Toxic

Structure (SMILES): c1ccc2oc(-c3ccc4c(c3)OCO4)cc2c1
Activity [3]: Non-Toxic

EC50 [2]: 15.7 µM
Structure (SMILES): COc1cc(CCCO[C@@H]2O[C@H](CO[C@@H]3O[C@H](CO)[C@@H](O)[C@H](O)[C@H]3O)[C@@H](O)[C@H](O)[C@H]2O)cc2cc(-c3ccc4c(c3)OCO4)oc12

Structure (SMILES): COc1cccc2cc(-c3ccc(F)cc3)oc12
Activity [3]: Non-Toxic

Structure (SMILES): C=CC(=O)OCCCc1cc(OC)c2oc(-c3ccc4c(c3)OCO4)cc2c1
Activity [3]: Non-Toxic

Structure (SMILES): COc1cc(CCCI)cc2cc(-c3ccc4c(c3)OCO4)oc12
Activity [3]: Non-Toxic

Structure (SMILES): COc1cc(CCC=O)cc2cc(-c3ccc4c(c3)OCO4)oc12
Activity [3]: Non-Toxic

Structure (SMILES): COc1cc(CCCBr)cc2cc(-c3ccc4c(c3)OCO4)oc12
Activity [3]: Non-Toxic

Structure (SMILES): COc1cc(CCCOC(=O)c2ccccc2)cc2cc(-c3ccc4c(c3)OCO4)oc12
fold change (FC) [1]: >0.6 | Activity [3]: Non-Toxic

Structure (SMILES): COc1cc(CCCCl)cc2cc(-c3ccc4c(c3)OCO4)oc12
fold change (FC) [1]: >0.6 | Activity [3]: Non-Toxic

Structure (SMILES): COc1cc(CCCOC(C)=O)cc2cc(-c3ccc4c(c3)OCO4)oc12 [EGONOL ACETATE]
Activity [3]: Non-Toxic

Structure (SMILES): CCCC(=O)OCCCc1cc(OC)c2oc(-c3ccc4c(c3)OCO4)cc2c1 [EGONOLBUTANOATE]
Activity [3]: Non-Toxic

Structure (SMILES): COc1cc(CCCO)cc2cc(-c3ccc4c(c3)OCO4)oc12 [EGONOL]
Activity [3]: Non-Toxic
